For 19 compounds, IC50 and inhibition results are on record in patent EP0823908B1, “PYRIDO[2,3-d]PYRIMIDINES FOR INHIBITING PROTEIN TYROSINE KINASE MEDIATED [sequence] PROLIFERATION” (Warner-Lambert Company LLC, priority 1995, dated 1996).

What all share (type): biochemical
In one assay the target is T1, C-src kinase (Homo sapiens, UniProt P12931).
T1 construct: made in house; host or cells: baculovirus infected insect cells
The assay can be described thus: C-src kinase assay (poly GluTyr substrate). The settings on record: for inhibition at 50 µM: read-out: C-src TK % Inhibition at 50 µM. The method, then: V-src or C-src kinase is purified from baculovirus infected insect cell lysates using an antipeptide monoclonal antibody directed against the N-terminal 2-17 amino acids. The antibody, covalently linked to 0.65-µm latex beads, is added to a suspension of insect cell lysis buffer comprised of 150 mM NaCl, 50 mM Tris pH 7.5, 1 mM DTT, 1% NP-40, 2 mM EGTA, 1 mM sodium vanadate, 1 mM PMSF, 1 µg/mL each of leupeptin, pepstatin, and aprotinin. […] At the end of the lysate incubation, the beads are rinsed 3 times in lysis buffer, resuspended in lysis buffer containing 10% glycerol, and frozen. These latex beads are thawed, rinsed 3 times in assay buffer which is comprised of 40 mM tris pH 7.5, 5 mM MgCl2, and suspended in the same buffer. In a Millipore 96-well plate with a 0.65 µm polyvinylidine membrane bottom are added the reaction components: 10-µL V-src or C-src beads, 10 µL of 2.5 mg/mL poly GluTyr substrate, 5 µM ATP containing 0.2 µCi labeled ^32P-ATP, 5µL DMSO containing inhibitors or as a solvent control, and buffer to make the final volume 125 µL. The reaction is started at room temperature by addition of the ATP and quenched 10 minutes later by the addition of 125 µL of 30% TCA, 0.1 M sodium pyrophosphate for 5 minutes on ice. […] The filters are punched, counted in a liquid scintillation counter, and the data examined for inhibitory activity in comparison to a known inhibitor such as erbstatin.

The target of assay [1] is T2, mouse PDGF-β receptor tyrosine kinase (Mus musculus, UniProt P05622).
T2 construct: amplify a fragment of DNA that codes for the intracellular tyrosine kinase domain; made in house; host or cells: SF9 insect cells (baculovirus)
T2 sequence (P05622 599-961 limits assumed): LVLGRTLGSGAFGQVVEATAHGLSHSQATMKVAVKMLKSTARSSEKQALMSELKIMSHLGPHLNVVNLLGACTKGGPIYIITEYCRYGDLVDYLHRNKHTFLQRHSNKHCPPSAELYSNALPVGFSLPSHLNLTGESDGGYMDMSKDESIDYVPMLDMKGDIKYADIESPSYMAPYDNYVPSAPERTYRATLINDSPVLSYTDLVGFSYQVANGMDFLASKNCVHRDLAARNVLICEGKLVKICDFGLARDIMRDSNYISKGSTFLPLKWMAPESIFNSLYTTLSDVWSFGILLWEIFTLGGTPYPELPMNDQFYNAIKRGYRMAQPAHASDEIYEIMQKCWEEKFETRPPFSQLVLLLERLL
Put plainly: PDGF receptor tyrosine kinase assay (32P incorporation into glutamate-tyrosine co-polymer). The settings on record: for IC50: read-out: PDGFr-TK IC50; for inhibition at 50 µM: read-out: PDGFr-TK % Inhibition at 50 µM. The source says:
(§1) Full length cDNAs for the mouse PDGF-β and human FGF-1 (flg) receptor tyrosine kinases were obtained from J. Escobedo and prepared as described in J. Biol. Chem., 262:1482-1487 […], and PCR primers were designed to amplify a fragment of DNA that codes for the intracellular tyrosine kinase domain. The fragment was melded into a baculovirus vector, cotransfected with AcMNPV DNA, and the recombinant virus isolated. SF9 insect cells were infected with the virus to overexpress the protein, and the cell lysate was used for the assay. The assay was performed in 96-well plates (100 µL/incubation/well), and conditions were optimized to measure the incorporation of ^32P from γ^32P-ATP into a glutamate-tyrosine co-polymer substrate. Briefly, to each well was added 82.5 µL of incubation buffer containing 25 mM Hepes (pH 7.0), 150 mM NaCl, 0.1% Triton X-100, 0.2 mM PMSF, 0.2 mM Na3VO4, 10 mM MnCl2, and 750 µg/mL of Poly (4:1) glutamate-tyrosine followed by 2.5 µL of inhibitor and 5µL of enzyme lysate (7.5 µg/µL FGF-TK or 6.0 µg/µL PDGF-TK) to initiate the reaction. Following a 10 minute incubation at 25°C, 10 µL of γ^32P-ATP (0.4 µCi plus 50 µM ATP) was added to each well and samples were incubated for an additional 10 minutes at 25°C. The reaction was terminated by the addition of 100 µL of 30% trichloroacetic acid (TCA) containing 20 mM sodium pyrophosphate and precipitation of material onto glass fiber filter mats (Wallac). […] Nonspecific activity was defined as radioactivity retained on the filters following incubation of samples with buffer alone (no enzyme). Specific enzymatic activity was defined as total activity (enzyme plus buffer) minus nonspecific activity.

The target in assay [2] is T3, human FGF-1 (flg) receptor tyrosine kinase (Homo sapiens, UniProt P11362).
T3 construct: amplify a fragment of DNA that codes for the intracellular tyrosine kinase domain; made in house; host or cells: SF9 insect cells (baculovirus)
T3 sequence (P11362 478-767 limits assumed): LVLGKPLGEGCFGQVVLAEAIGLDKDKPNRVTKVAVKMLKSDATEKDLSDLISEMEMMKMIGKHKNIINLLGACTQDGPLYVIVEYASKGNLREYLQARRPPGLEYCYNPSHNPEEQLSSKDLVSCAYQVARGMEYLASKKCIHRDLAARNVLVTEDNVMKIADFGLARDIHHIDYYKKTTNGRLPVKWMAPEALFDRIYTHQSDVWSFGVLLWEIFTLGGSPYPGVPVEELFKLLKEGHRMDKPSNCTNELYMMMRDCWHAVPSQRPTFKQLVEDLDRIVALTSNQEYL
Put plainly: FGF receptor tyrosine kinase assay (32P incorporation into glutamate-tyrosine co-polymer). The conditions noted are these: for IC50: read-out: FGFr-TK IC50; for inhibition at 50 µM: read-out: FGFr-TK % Inhibition at 50 µM.
From the text: as §1

Assay [3] addresses T4, Human EGF receptor tyrosine kinase (Homo sapiens, UniProt P00533).
T4 construct: Human EGF receptor tyrosine kinase was isolated from A431 epidermoid carcinoma cells; endogenous in cells; host or cells: A431 epidermoid carcinoma cells
Put plainly: EGF receptor tyrosine kinase enzyme assay (substrate peptide phosphorylation). The conditions noted are these: for inhibition at 50 µM: read-out: EGF-FL % Inhibition at 50 µM; for IC50: read-out: EGF-FL IC50. Here is the method:
Human EGF receptor tyrosine kinase was isolated from A431 epidermoid carcinoma cells by the following methods. Cells were grown in roller bottles in 50% Dulbecco's Modified Eagle medium and 50% HAM F-12 nutrient media (Gibco) containing 10% fetal calf serum. Approximately 10^9 cells were lysed in two volumes of buffer containing 20 mM 2-(4N-[2-hydroxymethyl]-piperazin-1-yl)ethanesulfonic acid, pH 7.4, 5 mM ethylene glycol bis(2-aminoethyl ether) N,N,N',N'-tetraacetic acid, 1% Triton X-100, 10% glycerol, 0.1 mM sodium orthovanadate, 5 mM sodium fluoride, 4 mM pyrophosphate, 4 mM benzamide, 1 mM dithiothreitol, 80 µg/mL aprotinin, 40 µg/mL leupeptin, and 1 mM phenylmethylsulfonyl fluoride. […] Contaminating proteins were washed from the resin with 1 M NaCl in equilibration buffer, and the enzyme was eluted with 0.5 M N-acetyl-1-D-glucosamine in equilibration buffer.
The reaction was terminated by the addition of 2 mL of 75 mM phosphoric acid and passed through a 2.5-cm phosphocellulose filter disc to bind the peptide. The filter was washed 5 times with 75 mM phosphoric acid and placed in a vial along with 5 mL of scintillation fluid (Ready gel Heckman).

Like-named read-outs stand apart in the source and are kept apart here.

T4 sequence (P00533 25-1210): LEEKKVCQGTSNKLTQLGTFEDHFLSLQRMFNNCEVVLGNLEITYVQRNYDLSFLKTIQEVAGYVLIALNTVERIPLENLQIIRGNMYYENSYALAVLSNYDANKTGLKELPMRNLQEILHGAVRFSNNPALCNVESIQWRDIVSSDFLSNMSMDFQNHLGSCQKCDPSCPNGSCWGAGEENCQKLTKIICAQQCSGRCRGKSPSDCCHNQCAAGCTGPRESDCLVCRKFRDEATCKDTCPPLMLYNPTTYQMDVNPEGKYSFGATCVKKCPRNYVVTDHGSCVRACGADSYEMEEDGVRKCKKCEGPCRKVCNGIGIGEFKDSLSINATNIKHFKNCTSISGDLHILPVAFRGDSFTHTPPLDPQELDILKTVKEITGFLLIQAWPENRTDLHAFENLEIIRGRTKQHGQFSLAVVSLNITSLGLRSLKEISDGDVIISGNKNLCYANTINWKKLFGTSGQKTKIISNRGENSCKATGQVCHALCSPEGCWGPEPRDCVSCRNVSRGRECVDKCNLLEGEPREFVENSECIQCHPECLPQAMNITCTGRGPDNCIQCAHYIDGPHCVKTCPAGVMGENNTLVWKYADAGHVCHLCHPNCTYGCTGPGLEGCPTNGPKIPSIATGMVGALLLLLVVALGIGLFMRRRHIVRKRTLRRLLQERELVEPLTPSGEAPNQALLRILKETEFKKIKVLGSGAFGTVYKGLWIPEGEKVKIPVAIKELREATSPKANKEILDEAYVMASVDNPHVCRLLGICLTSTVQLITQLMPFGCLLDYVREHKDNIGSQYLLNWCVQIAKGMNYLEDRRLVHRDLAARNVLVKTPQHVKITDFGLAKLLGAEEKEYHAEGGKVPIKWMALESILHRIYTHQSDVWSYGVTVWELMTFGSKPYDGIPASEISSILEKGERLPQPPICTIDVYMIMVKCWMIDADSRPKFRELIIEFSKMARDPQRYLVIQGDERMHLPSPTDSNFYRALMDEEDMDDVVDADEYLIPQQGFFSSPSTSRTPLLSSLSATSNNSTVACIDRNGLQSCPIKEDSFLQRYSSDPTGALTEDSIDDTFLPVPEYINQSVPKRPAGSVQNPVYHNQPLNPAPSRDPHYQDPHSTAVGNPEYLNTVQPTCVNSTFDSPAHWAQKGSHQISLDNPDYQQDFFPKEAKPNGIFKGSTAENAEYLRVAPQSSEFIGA
T1 sequence (P12931 whole entry): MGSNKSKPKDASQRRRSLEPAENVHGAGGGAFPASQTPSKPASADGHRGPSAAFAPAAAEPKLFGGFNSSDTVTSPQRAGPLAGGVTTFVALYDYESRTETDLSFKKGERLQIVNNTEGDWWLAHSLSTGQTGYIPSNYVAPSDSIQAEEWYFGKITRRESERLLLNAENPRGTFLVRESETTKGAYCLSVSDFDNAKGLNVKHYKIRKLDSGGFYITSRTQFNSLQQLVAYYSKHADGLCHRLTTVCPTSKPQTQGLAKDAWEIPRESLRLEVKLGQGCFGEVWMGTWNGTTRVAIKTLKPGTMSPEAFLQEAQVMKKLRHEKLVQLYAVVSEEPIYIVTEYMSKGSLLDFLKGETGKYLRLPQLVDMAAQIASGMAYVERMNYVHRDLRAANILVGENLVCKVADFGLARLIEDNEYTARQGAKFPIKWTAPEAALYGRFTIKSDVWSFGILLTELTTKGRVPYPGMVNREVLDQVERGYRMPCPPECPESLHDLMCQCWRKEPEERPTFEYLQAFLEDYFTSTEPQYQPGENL

In the case of `Nc1ncc2cc(-c3c(Cl)cccc3Cl)c(N)nc2n1` [Example 10, 2,7-Diamino-6-(2,6-dichlorophenyl)-pyrido[2,3-d]-pyrimidine], the IC50 (commonly the concentration needed to halve the response being measured) was found to be 0.225 µM against C-src kinase, 21.2 µM in assay [1] and 3 µM in assay [2].

As for `CC(=O)Nc1ncc2cc(-c3c(Cl)cccc3Cl)c(=O)n(C)c2n1` [Example 15, N-[6-(2,6-Dichlorophenyl)-8-methyl-7-oxo-7,8-dihydro-pyrido[2,3-d]pyrimidin-2-yl]acetamide], the results for the half-maximal inhibitory concentration (IC50) (at C-src kinase (read-out: C-src TK IC50); in assay [1]; in assay [2]) were 4.22 µM, 5.18 µM and 5.79 µM, respectively.

With `Cn1c(=O)c(-c2c(Cl)cccc2Cl)cc2cnc(NC(=O)CCC(=O)O)nc21` [Example 16], the half-inhibitory concentration (IC50) at C-src kinase (read-out: C-src TK IC50) was determined as 3.1 µM; in assay [1], 5.45 µM; in assay [2], 6.49 µM.

Turning to `CCn1c(=O)c(-c2c(Cl)cccc2Cl)cc2cnc(N)nc21` [Example 30, 2-Amino-6-(2,6-dichlorophenyl)-8-ethyl-pyrido[2,3-d]-pyrimidin-7(8H)-one], the IC50 on C-src kinase (read-out: C-src TK IC50) is 0.155 µM; in assay [1] it was 0.98 µM. Besides, the inhibition (as a rule, the share of the control response that was lost under treatment) at 50 µM in assay [3] was determined as 77%.

Regarding `CC(C)(C)OC(=O)Cn1c(=O)c(-c2c(Cl)cccc2Cl)cc2cnc(N)nc21` [Example 36, [2-Amino-6-(2,6-dichlorophenyl)-7-oxo-7H-pyrido[2,3-d]-pyrimidin-8-yl]-acetic acid tert-butyl ester], the half-maximal inhibitory concentration (IC50) on C-src kinase (read-out: C-src TK IC50) is 0.56 µM; in assay [1], 7.53 µM; in assay [2] it was 1.45 µM.

For the compound `Cn1c(=O)c(-c2c(Cl)cccc2Cl)cc2cnc(NCCCN3CCOCC3)nc21` [Example 47, 6-(2,6-Dichlorophenyl)-8-methyl-2-(3-morpholin-4-yl-propylamino)-8H-pyrido[2,3-d]pyrimidin-7-one], the inhibition at 50 µM at C-src kinase was found to be 36%; in assay [3] it was 70%. Also, in assay [1], the IC50 came to 5.98 µM.

Turning to `Cn1c(=O)c(-c2c(Cl)cccc2Cl)cc2cnc(NC3CCCCC3)nc21` [Example 60, 2-Cyclohexylamino-6-(2,6-dichlorophenyl)-8-methyl-8H-pyrido[2,3-d]pyrimidin-7-one], the figures for the IC50 (at C-src kinase (read-out: C-src TK IC50); in assay [1]; in assay [2]) were 1.64 µM, 9.38 µM and 6.52 µM, respectively.

In the case of `Cn1c(=O)c(-c2c(Cl)cccc2Cl)cc2cnc(NCCCCCC(=O)OC(C)(C)C)nc21` [Example 61, 6-[6-(2,6-Dichlorophenyl)-8-methyl-7-oxo-7,8-dihydro-pyrido[2,3-d]pyrimidin-2-ylamino]-hexanoic acid, tert-butyl ester], the inhibition at 50 µM at C-src kinase turned out to be 64%. Besides, the IC50 in assay [1] was 26.5 µM; in assay [2] it was 8.6 µM.

Consider `COc1ccc(Nc2ncc3cc(-c4c(Cl)cccc4Cl)c(=O)n(C)c3n2)cc1` [Example 64, 6-(2,6-Dichlorophenyl)-2-(4-methoxyphenylamino)-8-methyl-8H-pyrido[2,3-d]pyrimidin-7-one], for which the IC50 in assay [1] was found to be 0.546 µM; in assay [3] it was 0.065 µM; in assay [2] it was 0.403 µM.

As to `COc1cccc(Nc2ncc3cc(-c4c(Cl)cccc4Cl)c(=O)n(C)c3n2)c1` [Example 72, 6-(2,6-Dichlorophenyl)-2-(3-methoxyphenylamino)-8-methyl-8H-pyrido[2,3-d]pyrimidin-7-one], the IC50 on C-src kinase (read-out: C-src TK IC50) came to 0.052 µM; in assay [3], 0.033 µM.

For the compound `CN1CCN(CCCCCNc2ncc3cc(-c4c(Cl)cccc4Cl)c(=O)n(C)c3n2)CC1` [Example 81, 6-(2,6-Dichlorophenyl)-8-methyl-2-[5-(4-methylpiperazin-1-yl)-pentylamino]-8H-pyrido[2,3-d]pyrimdin-7-one], the inhibition at 50 µM on C-src kinase is 94%. The IC50 in assay [1] turned out to be 0.743 µM; in assay [3] it was 4.5 µM.

For `Cn1c(=O)c(-c2c(Cl)cccc2Cl)cc2cnc(Nc3cccc(O)c3)nc21` [Example 87, 6-(2,6-Dichlorophenyl)-2-(3-hydroxyphenylamino)-8-methyl-8H-pyrido[2,3-d]pyrimidin-7-one], the figures for the IC50 in assay [1] and in assay [3] were 0.35 µM and 0.14 µM, respectively.

In the case of `CCOC(=O)c1ccc(Nc2ncc3cc(-c4c(Cl)cccc4Cl)c(=O)n(C)c3n2)cc1` [Example 88, 4-[6-(2,6-Dichlorophenyl)-8-methyl-7-oxo-7,8-dihydro-pyrido[2,3-d]pyrimidin-2-ylamino]-benzoic acid, ethyl ester], the concentration for half-maximal inhibition (IC50) at C-src kinase (read-out: C-src TK IC50) worked out at 0.095 µM; in assay [1], 38 µM; in assay [2], 69 µM.

For `CCOC(=O)c1cccc(Nc2ncc3cc(-c4c(Cl)cccc4Cl)c(=O)n(C)c3n2)c1` [Example 89, 3-[6-(2,6-Dichlorophenyl)-8-methyl-7-oxo-7,8-dihydro-pyrido[2,3-d]pyrimidin-2-ylamino]-benzoic acid, ethyl ester], the IC50 at C-src kinase (read-out: C-src TK IC50) turned out to be 0.014 µM; in assay [1], 1.48 µM; in assay [2], 1.49 µM.

As for `CCn1c(=O)c(-c2c(Cl)cccc2Cl)cc2cnc(Nc3ccncc3)nc21` [Example 93, (2,6-Dichlorophenyl)-8-ethyl-2-(pyridin-4-ylamino)-8H-pyrido[2,3-d]pyrimidin-7-one], at C-src kinase (read-out: C-src TK IC50), the IC50 came out at 0.009 µM.

Consider `Nc1ncc2cc(-c3c(Cl)cccc3Cl)c(=O)n(CC(=O)O)c2n1` [Example 107, [2-Amino-6-(2,6-dichlorophenyl)-7-oxo-7H-pyrido[2,3-d]-pyrimidin-8-yl]-acetic acid], for which the inhibition at 50 µM on C-src kinase is 52%; in assay [1], 43%. Also, the IC50 in assay [2] is 9.24 µM.

As for `CCn1c(=O)c(-c2cc(C)cc(C)c2)cc2cnc(Nc3ccccc3)nc21` [Example 118, 6-(3,5-Dimethylphenyl)-8-ethyl-2-phenylamino-8H-pyrido[2,3-d]pyrimidin-7-one], the inhibition at 50 µM at C-src kinase amounted to 0%; in assay [1] it was 12%; in assay [2], 29%.

For `CCn1c(=O)c(-c2ccncc2)cc2cnc(Nc3ccccc3)nc21` [Example 120, 8-Ethyl-2-phenylamino-6-pyridin-4-yl-8H-pyrido[2,3-d]-pyriminin-7-one], the inhibition at 50 µM on C-src kinase came out at 29%; in assay [2], 2%. Moreover, the IC50 in assay [1] turned out to be 1.83 µM.

Consider `CCn1c(=O)c(-c2ccc(-c3ccccc3)cc2)cc2cnc(Nc3ccccc3)nc21` [Example 124, 6-Biphenyl-4-yl-8-ethyl-2-phenylamino-8H-pyrido[2,3-d]-pyrimidin-7-one], for which the figures for the inhibition at 50 µM (at C-src kinase; in assay [1]; in assay [2]) were 11%, 38% and 15%, respectively.
